Measurements taken from ChEMBL document CHEMBL1649134, “Occurrence of efflux mechanism and cephalosporinase variant in a population of Enterobacter aerogenes and Klebsiella pneumoniae isolates producing extended-spectrum beta-lactamases” (2009).
Converted amounts (≈) assume the structure as drawn.

Columns and labels:
Type in all cases: functional
[1] = tested on: Klebsiella pneumoniae; assay: Antimicrobial activity against multidrug resistant Klebsiella pneumoniae isolate 9 by broth dilution method in presence of 26.3 mg/L efflux pump inhibitor phenylalanine-arginine-beta-naphthylamide
[2] = tested on: Klebsiella aerogenes; assay: Antimicrobial activity against multidrug resistant Enterobacter aerogenes isolate 12 by broth dilution method in presence of 26.3 mg/L efflux pump inhibitor phenylalanine-arginine-beta-naphthylamide
[3] = tested on: Klebsiella aerogenes; assay: Antimicrobial activity against multidrug resistant Enterobacter aerogenes isolate 18 by broth dilution method in presence of 26.3 mg/L efflux pump inhibitor phenylalanine-arginine-beta-naphthylamide
[4] = tested on: Klebsiella aerogenes; assay: Antimicrobial activity against multidrug resistant Enterobacter aerogenes isolate 20 by broth dilution method
[5] = tested on: Klebsiella pneumoniae; assay: Antimicrobial activity against multidrug resistant Klebsiella pneumoniae isolate 11 by broth dilution method
[6] = tested on: Klebsiella aerogenes; assay: Antimicrobial activity against multidrug resistant Enterobacter aerogenes isolate 16 by broth dilution method in presence of 26.3 mg/L efflux pump inhibitor phenylalanine-arginine-beta-naphthylamide
[7] = tested on: Klebsiella aerogenes; assay: Antimicrobial activity against multidrug resistant Enterobacter aerogenes isolate 17 by broth dilution method
[8] = tested on: Klebsiella aerogenes; assay: Antimicrobial activity against multidrug resistant Enterobacter aerogenes isolate 25 by broth dilution method in presence of 26.3 mg/L efflux pump inhibitor phenylalanine-arginine-beta-naphthylamide
[9] = tested on: Klebsiella pneumoniae; assay: Antimicrobial activity against multidrug resistant Klebsiella pneumoniae isolate 1 by broth dilution method
[10] = tested on: Klebsiella aerogenes; assay: Antimicrobial activity against multidrug resistant Enterobacter aerogenes isolate 17 by broth dilution method in presence of 26.3 mg/L efflux pump inhibitor phenylalanine-arginine-beta-naphthylamide
[11] = tested on: Klebsiella aerogenes; assay: Antimicrobial activity against multidrug resistant Enterobacter aerogenes isolate 5 by broth dilution method
[12] = tested on: Klebsiella pneumoniae; assay: Antimicrobial activity against multidrug resistant Klebsiella pneumoniae isolate 16 by broth dilution method in presence of 26.3 mg/L efflux pump inhibitor phenylalanine-arginine-beta-naphthylamide
[13] = tested on: Klebsiella pneumoniae; assay: Antimicrobial activity against multidrug resistant Klebsiella pneumoniae isolate 5 by broth dilution method
[14] = tested on: Klebsiella aerogenes; assay: Antimicrobial activity against multidrug resistant Enterobacter aerogenes isolate 24 by broth dilution method in presence of 26.3 mg/L efflux pump inhibitor phenylalanine-arginine-beta-naphthylamide
[15] = tested on: Klebsiella aerogenes; assay: Antimicrobial activity against multidrug resistant Enterobacter aerogenes isolate 13 by broth dilution method in presence of 26.3 mg/L efflux pump inhibitor phenylalanine-arginine-beta-naphthylamide
[16] = tested on: Klebsiella aerogenes; assay: Antimicrobial activity against multidrug resistant Enterobacter aerogenes isolate 23 by broth dilution method in presence of 26.3 mg/L efflux pump inhibitor phenylalanine-arginine-beta-naphthylamide
[17] = tested on: Klebsiella aerogenes; assay: Antimicrobial activity against multidrug resistant Enterobacter aerogenes isolate 8 by broth dilution method in presence of 26.3 mg/L efflux pump inhibitor phenylalanine-arginine-beta-naphthylamide
[18] = tested on: Klebsiella aerogenes; assay: Antimicrobial activity against multidrug resistant Enterobacter aerogenes isolate 18 by broth dilution method
[19] = tested on: Klebsiella pneumoniae; assay: Antimicrobial activity against multidrug resistant Klebsiella pneumoniae isolate 11 by broth dilution method in presence of 26.3 mg/L efflux pump inhibitor phenylalanine-arginine-beta-naphthylamide
[20] = tested on: Klebsiella pneumoniae; assay: Antimicrobial activity against multidrug resistant Klebsiella pneumoniae isolate 4 by broth dilution method in presence of 26.3 mg/L efflux pump inhibitor phenylalanine-arginine-beta-naphthylamide
[21] = tested on: Klebsiella aerogenes; assay: Antimicrobial activity against multidrug resistant Enterobacter aerogenes isolate 7 by broth dilution method in presence of 26.3 mg/L efflux pump inhibitor phenylalanine-arginine-beta-naphthylamide
[22] = tested on: Klebsiella aerogenes; assay: Antimicrobial activity against multidrug resistant Enterobacter aerogenes isolate 4 by broth dilution method
[23] = tested on: Klebsiella aerogenes; assay: Antimicrobial activity against multidrug resistant Enterobacter aerogenes isolate 9 by broth dilution method in presence of 26.3 mg/L efflux pump inhibitor phenylalanine-arginine-beta-naphthylamide
[24] = tested on: Klebsiella pneumoniae; assay: Antimicrobial activity against multidrug resistant Klebsiella pneumoniae isolate 15 by broth dilution method in presence of 26.3 mg/L efflux pump inhibitor phenylalanine-arginine-beta-naphthylamide
[25] = tested on: Klebsiella aerogenes; assay: Antimicrobial activity against multidrug resistant Enterobacter aerogenes isolate 20 by broth dilution method in presence of 26.3 mg/L efflux pump inhibitor phenylalanine-arginine-beta-naphthylamide
[26] = tested on: Klebsiella aerogenes; assay: Antimicrobial activity against multidrug resistant Enterobacter aerogenes isolate 19 by broth dilution method in presence of 26.3 mg/L efflux pump inhibitor phenylalanine-arginine-beta-naphthylamide
[27] = tested on: Klebsiella aerogenes; assay: Antimicrobial activity against multidrug resistant Enterobacter aerogenes isolate 3 by broth dilution method in presence of 26.3 mg/L efflux pump inhibitor phenylalanine-arginine-beta-naphthylamide
[28] = tested on: Klebsiella pneumoniae; assay: Antimicrobial activity against multidrug resistant Klebsiella pneumoniae isolate 14 by broth dilution method in presence of 26.3 mg/L efflux pump inhibitor phenylalanine-arginine-beta-naphthylamide
[29] = tested on: Klebsiella aerogenes; assay: Antimicrobial activity against multidrug resistant Enterobacter aerogenes isolate 19 by broth dilution method
[30] = tested on: Klebsiella pneumoniae; assay: Antimicrobial activity against multidrug resistant Klebsiella pneumoniae isolate 4 by broth dilution method
[31] = tested on: Klebsiella pneumoniae; assay: Antimicrobial activity against multidrug resistant Klebsiella pneumoniae isolate 13 by broth dilution method in presence of 26.3 mg/L efflux pump inhibitor phenylalanine-arginine-beta-naphthylamide
[32] = tested on: Klebsiella pneumoniae; assay: Antimicrobial activity against multidrug resistant Klebsiella pneumoniae isolate 15 by broth dilution method
[33] = tested on: Klebsiella aerogenes; assay: Antimicrobial activity against multidrug resistant Enterobacter aerogenes isolate 12 by broth dilution method
[34] = tested on: Klebsiella pneumoniae; assay: Antimicrobial activity against multidrug resistant Klebsiella pneumoniae isolate 12 by broth dilution method
[35] = tested on: Klebsiella aerogenes; assay: Antimicrobial activity against multidrug resistant Enterobacter aerogenes isolate 4 by broth dilution method in presence of 26.3 mg/L efflux pump inhibitor phenylalanine-arginine-beta-naphthylamide
[36] = tested on: Klebsiella pneumoniae; assay: Antimicrobial activity against multidrug resistant Klebsiella pneumoniae isolate 5 by broth dilution method in presence of 26.3 mg/L efflux pump inhibitor phenylalanine-arginine-beta-naphthylamide
[37] = tested on: Klebsiella aerogenes; assay: Antimicrobial activity against multidrug resistant Enterobacter aerogenes isolate 11 by broth dilution method
[38] = tested on: Klebsiella pneumoniae; assay: Antimicrobial activity against multidrug resistant Klebsiella pneumoniae isolate 8 by broth dilution method
[39] = tested on: Klebsiella aerogenes; assay: Antimicrobial activity against multidrug resistant Enterobacter aerogenes isolate 11 by broth dilution method in presence of 26.3 mg/L efflux pump inhibitor phenylalanine-arginine-beta-naphthylamide
[40] = tested on: Klebsiella aerogenes; assay: Antimicrobial activity against multidrug resistant Enterobacter aerogenes isolate 14 by broth dilution method in presence of 26.3 mg/L efflux pump inhibitor phenylalanine-arginine-beta-naphthylamide
[41] = tested on: Klebsiella pneumoniae; assay: Antimicrobial activity against multidrug resistant Klebsiella pneumoniae isolate 8 by broth dilution method in presence of 26.3 mg/L efflux pump inhibitor phenylalanine-arginine-beta-naphthylamide
[42] = tested on: Klebsiella aerogenes; assay: Antimicrobial activity against multidrug resistant Enterobacter aerogenes ATCC 15038 by broth dilution method in presence of 26.3 mg/L efflux pump inhibitor phenylalanine-arginine-beta-naphthylamide
[43] = tested on: Klebsiella pneumoniae; assay: Antimicrobial activity against multidrug resistant Klebsiella pneumoniae isolate 9 by broth dilution method
[44] = tested on: Klebsiella aerogenes; assay: Antimicrobial activity against multidrug resistant Enterobacter aerogenes isolate 25 by broth dilution method
[45] = tested on: Klebsiella aerogenes; assay: Antimicrobial activity against multidrug resistant Enterobacter aerogenes isolate 23 by broth dilution method
[46] = tested on: Klebsiella aerogenes; assay: Antimicrobial activity against multidrug resistant Enterobacter aerogenes isolate 8 by broth dilution method
[47] = tested on: Klebsiella pneumoniae; assay: Antimicrobial activity against multidrug resistant Klebsiella pneumoniae isolate 14 by broth dilution method
[48] = tested on: Klebsiella pneumoniae; assay: Antimicrobial activity against multidrug resistant Klebsiella pneumoniae isolate 16 by broth dilution method

O=C(N[C@H](CO)[C@H](O)c1ccc([N+](=O)[O-])cc1)C(Cl)Cl [CHLORAMPHENICOL]
MIC [1]: 8 µg/mL | MIC [2]: 128 µg/mL | MIC [3]: 4 µg/mL | MIC [4]: 1020 µg/mL (≈ 3170 µM) | MIC [5]: 8 µg/mL (≈ 24.8 µM) | MIC [6]: 64 µg/mL | MIC [7]: 1020 µg/mL (≈ 3170 µM) | MIC [8]: 64 µg/mL | MIC [9]: 8 µg/mL (≈ 24.8 µM) | MIC [10]: 64 µg/mL | MIC [11]: > 1020 µg/mL | MIC [12]: 4 µg/mL | MIC [13]: 32 µg/mL (≈ 99 µM) | MIC [14]: 64 µg/mL | MIC [15]: 64 µg/mL | MIC [16]: 64 µg/mL | MIC [17]: 64 µg/mL | MIC [18]: 32 µg/mL (≈ 99 µM) | MIC [19]: 4 µg/mL | MIC [20]: 2 µg/mL | MIC [21]: 128 µg/mL | MIC [22]: 1020 µg/mL (≈ 3170 µM) | MIC [23]: 64 µg/mL | MIC [24]: 2 µg/mL | MIC [25]: 64 µg/mL | MIC [26]: 64 µg/mL | MIC [27]: 128 µg/mL | MIC [28]: 2 µg/mL | MIC [29]: 1020 µg/mL (≈ 3170 µM) | MIC [30]: 4 µg/mL (≈ 12.4 µM) | MIC [31]: 4 µg/mL | MIC [32]: 8 µg/mL (≈ 24.8 µM) | MIC [33]: 1020 µg/mL (≈ 3170 µM) | MIC [34]: 64 µg/mL (≈ 198 µM) | MIC [35]: 128 µg/mL | MIC [36]: 2 µg/mL | MIC [37]: 512 µg/mL (≈ 1580 µM) | MIC [38]: 32 µg/mL (≈ 99 µM) | MIC [39]: 64 µg/mL | MIC [40]: 64 µg/mL | MIC [41]: 2 µg/mL | MIC [42]: 1 µg/mL | MIC [43]: 64 µg/mL (≈ 198 µM) | MIC [44]: 512 µg/mL (≈ 1580 µM) | MIC [45]: 512 µg/mL (≈ 1580 µM) | MIC [46]: 256 µg/mL (≈ 792 µM)

CCn1cc(C(=O)O)c(=O)c2cc(F)c(N3CCNCC3)cc21 [NORFLOXACIN]
MIC [1]: ≤ 0.06 µg/mL | MIC [2]: 512 µg/mL | MIC [3]: 128 µg/mL | MIC [4]: 512 µg/mL (≈ 1600 µM) | MIC [5]: 64 µg/mL (≈ 200 µM) | MIC [6]: 128 µg/mL | MIC [7]: > 512 µg/mL | MIC [8]: 128 µg/mL | MIC [9]: 2 µg/mL (≈ 6.26 µM) | MIC [10]: 128 µg/mL | MIC [11]: 512 µg/mL (≈ 1600 µM) | MIC [12]: 0.5 µg/mL | MIC [13]: 2 µg/mL (≈ 6.26 µM) | MIC [14]: 128 µg/mL | MIC [47]: 8 µg/mL (≈ 25.1 µM) | MIC [15]: 512 µg/mL | MIC [16]: 256 µg/mL | MIC [17]: 128 µg/mL | MIC [18]: 128 µg/mL (≈ 401 µM) | MIC [19]: 64 µg/mL | MIC [20]: 128 µg/mL | MIC [21]: 256 µg/mL | MIC [22]: 512 µg/mL (≈ 1600 µM) | MIC [23]: 128 µg/mL | MIC [24]: 256 µg/mL | MIC [25]: 128 µg/mL | MIC [26]: 128 µg/mL | MIC [27]: 256 µg/mL | MIC [28]: 0.25 µg/mL | MIC [29]: 128 µg/mL (≈ 401 µM) | MIC [30]: 128 µg/mL (≈ 401 µM) | MIC [31]: 32 µg/mL | MIC [32]: 256 µg/mL (≈ 802 µM) | MIC [33]: 512 µg/mL (≈ 1600 µM) | MIC [34]: 8 µg/mL (≈ 25.1 µM) | MIC [35]: 512 µg/mL | MIC [36]: 0.5 µg/mL | MIC [37]: 512 µg/mL (≈ 1600 µM) | MIC [38]: 2 µg/mL (≈ 6.26 µM) | MIC [39]: 256 µg/mL | MIC [40]: 512 µg/mL | MIC [41]: 0.25 µg/mL | MIC [42]: 0.125 µg/mL | MIC [43]: 1 µg/mL (≈ 3.13 µM) | MIC [44]: 256 µg/mL (≈ 802 µM) | MIC [48]: 1 µg/mL (≈ 3.13 µM) | MIC [45]: 512 µg/mL (≈ 1600 µM) | MIC [46]: 128 µg/mL (≈ 401 µM)
